This note sets out measurements from patent US10538498B2, “1,3,4-oxadiazole sulfonamide derivative compounds as histone deacetylase 6 inhibitor, and the pharmaceutical composition comprising the same” (Chong Kun Dang Pharmaceutical Corp., priority 2015, dated 2020).

Test [1] deals with T1, human recombinant HDAC1 (Homo sapiens, UniProt Q13547).
T1 construct: purchased Enzo Life Science BML-SE456
Description: HDAC1 enzyme activity inhibition assay (HDAC Fluorimetric Drug Discovery Kit). As to conditions: 0.3 μg enzyme, 10 μM substrate, 30° C., 60 minutes. It is filed as biochemical. The essentials:
(§1)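 IC50s derived from fluorescence (Ex 360, Em 460) read after a 30-min developer step. Beforehand, compounds in 5-fold dilution series reacted 60 min at 30° C with 0.3 μg human recombinant enzyme and 10 μM Fluor de Lys-SIRT1 substrate.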

Test [2] has as its target T2, human recombinant HDAC6 (Homo sapiens, UniProt Q9UBN7).
T2 construct: purchased Calbiochem 382180
T2 sequence (Q9UBN7 1-1215): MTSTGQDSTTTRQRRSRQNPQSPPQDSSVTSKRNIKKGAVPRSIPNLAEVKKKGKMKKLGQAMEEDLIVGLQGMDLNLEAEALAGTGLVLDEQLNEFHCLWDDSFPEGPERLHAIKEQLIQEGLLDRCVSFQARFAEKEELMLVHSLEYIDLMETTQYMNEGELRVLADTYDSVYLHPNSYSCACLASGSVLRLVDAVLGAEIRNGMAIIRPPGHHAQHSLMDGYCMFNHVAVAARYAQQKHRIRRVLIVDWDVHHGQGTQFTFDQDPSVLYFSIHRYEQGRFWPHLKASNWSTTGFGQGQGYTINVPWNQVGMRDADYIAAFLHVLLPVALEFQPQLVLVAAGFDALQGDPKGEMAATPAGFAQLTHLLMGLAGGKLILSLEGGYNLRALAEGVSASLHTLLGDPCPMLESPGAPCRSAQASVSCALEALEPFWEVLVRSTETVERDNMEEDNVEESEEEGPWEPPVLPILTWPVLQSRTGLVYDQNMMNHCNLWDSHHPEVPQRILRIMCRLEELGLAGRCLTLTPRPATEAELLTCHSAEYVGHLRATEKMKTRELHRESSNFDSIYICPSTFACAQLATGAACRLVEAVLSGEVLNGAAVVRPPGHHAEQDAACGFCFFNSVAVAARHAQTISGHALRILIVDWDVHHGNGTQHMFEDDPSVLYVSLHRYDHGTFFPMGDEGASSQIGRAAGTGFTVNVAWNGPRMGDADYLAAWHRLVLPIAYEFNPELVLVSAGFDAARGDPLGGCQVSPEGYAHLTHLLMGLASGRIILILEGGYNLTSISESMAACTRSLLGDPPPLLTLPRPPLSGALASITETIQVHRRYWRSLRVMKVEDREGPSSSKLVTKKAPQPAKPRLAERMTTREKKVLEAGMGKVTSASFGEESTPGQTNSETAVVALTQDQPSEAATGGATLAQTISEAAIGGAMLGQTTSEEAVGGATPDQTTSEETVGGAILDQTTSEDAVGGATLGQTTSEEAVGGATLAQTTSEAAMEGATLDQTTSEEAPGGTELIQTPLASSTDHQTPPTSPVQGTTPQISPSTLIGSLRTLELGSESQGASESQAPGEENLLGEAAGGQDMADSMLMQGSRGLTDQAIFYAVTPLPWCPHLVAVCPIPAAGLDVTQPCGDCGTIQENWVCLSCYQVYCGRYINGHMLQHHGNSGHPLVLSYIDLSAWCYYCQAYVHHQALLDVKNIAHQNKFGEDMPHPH
Description: HDAC6 enzyme activity inhibition assay (HDAC Fluorimetric Drug Discovery Kit). It counts as biochemical. The conditions noted are these: for HDAC6 selectivity (fold): HDAC1 vs HDAC6; for IC50: same protocol as the HDAC1 enzyme activity test. The essentials:
as §1

T1 sequence (Q13547 whole entry): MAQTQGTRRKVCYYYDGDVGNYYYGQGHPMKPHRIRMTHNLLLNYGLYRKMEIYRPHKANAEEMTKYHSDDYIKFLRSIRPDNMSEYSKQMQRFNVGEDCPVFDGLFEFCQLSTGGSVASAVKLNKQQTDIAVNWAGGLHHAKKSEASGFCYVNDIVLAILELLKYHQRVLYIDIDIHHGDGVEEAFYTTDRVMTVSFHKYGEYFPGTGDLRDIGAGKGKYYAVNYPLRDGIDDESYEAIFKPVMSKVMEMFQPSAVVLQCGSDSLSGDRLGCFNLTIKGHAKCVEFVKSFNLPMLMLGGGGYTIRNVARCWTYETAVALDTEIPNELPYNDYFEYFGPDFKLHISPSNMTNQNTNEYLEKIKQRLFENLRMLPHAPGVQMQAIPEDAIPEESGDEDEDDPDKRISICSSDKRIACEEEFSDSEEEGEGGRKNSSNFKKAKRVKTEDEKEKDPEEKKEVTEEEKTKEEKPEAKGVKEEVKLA

In general, IC50 refers to the concentration needed to halve the response being measured. In the case of `C[C@@H]1CN(CCS(=O)(=O)N(Cc2ccc(-c3nnc(C(F)F)o3)cc2)c2ccccc2)C[C@H](C)N1C` [Compound 11646, N-(4-(5-(difluoromethyl)-1,3,4-oxadiazol-2-yl)benzyl)-N-phenyl-2-((3S,5R)-3,4,5-trimethylpiperazin-1-yl)ethane-1-sulfonamide], the half-maximal inhibitory concentration (IC50) in test [1] amounted to 109 µM. For the same compound, in test [2], the “HDAC6 selectivity (fold)” value worked out at 7254 fold and the IC50 is 0.015 µM.
As to `Cc1cccc(N(Cc2ccc(-c3nnc(C(F)F)o3)cn2)S(=O)(=O)C2CCN(C3CCOCC3)CC2)c1` [Compound 11692, N-((5-(5-(difluoromethyl)-1,3,4-oxadiazol-2-yl)pyridin-2-yl)methyl)-1-(tetrahydro-2H-pyran-4-yl)-N-(m-tolyl)piperidine-4-sulfonamide], the IC50 in test [1] was 71.7 µM. For the same compound, in test [2], the “HDAC6 selectivity (fold)” value amounted to 1309 fold and the IC50 worked out at 0.0547 µM.
Take `Cc1cccc(N(Cc2ccc(-c3nnc(C(F)F)o3)cn2)S(=O)(=O)C2CCN([C@H]3CC[C@@H](C(F)(F)F)CC3)CC2)c1` [Compound 11691, N-((5-(5-(difluoromethyl)-1,3,4-oxadiazol-2-yl)pyridin-2-yl)methyl)-N-(m-tolyl)-1-((1s,4s)-4-(trifluoromethyl)cyclohexyl)piperidine-4-sulfonamide]: the IC50 in test [1] was determined as 34.2 µM. Further, in test [2], the “HDAC6 selectivity (fold)” value is reported as 425 fold and the IC50 was determined as 0.0805 µM.
For `Cc1cccc(N(Cc2ccc(-c3nnc(C(F)F)o3)cc2)S(=O)(=O)C2CCN([C@H]3CC[C@@H](F)CC3)CC2)c1` [Compound 11696, N-(4-(5-(difluoromethyl)-1,3,4-oxadiazol-2-yl)benzyl)-1-((1s,4s)-4-fluorocyclohexyl)-N-(m-tolyl)piperidine-4-sulfonamide], the IC50 in test [1] worked out at 51.4 µM. In test [2], the “HDAC6 selectivity (fold)” value is listed as 289 fold and the IC50 amounted to 0.178 µM.
In the case of `O=S(=O)(CCCN1CCOCC1)N(Cc1ccc(-c2nnc(C(F)F)o2)cn1)c1ccc(F)c(Cl)c1` [Compound 11711, N-(3-chloro-4-fluorophenyl)-N-((5-(5-(difluoromethyl)-1,3,4-oxadiazol-2-yl)pyridin-2-yl)methyl)-3-morpholinopropane-1-sulfonamide], the IC50 came to 61.3 µM in test [1] and 0.0701 µM in test [2]. In addition, in test [2], the “HDAC6 selectivity (fold)” value is reported as 874 fold.
Regarding `CS(=O)(=O)N(Cc1ccc(-c2nnc(C(F)(F)F)o2)cc1F)c1cccc(Cl)c1` [Compound 11190, N-(3-chlorophenyl)-N-(2-fluoro-4-(5-(trifluoromethyl)-1,3,4-oxadiazol-2-yl)benzyl)methanesulfonamide], the IC50 in test [1] was found to be 19.5 µM; in test [2] it was 0.129 µM. Further, the “HDAC6 selectivity (fold)” value in test [2] amounted to 151 fold.
On to `CS(=O)(=O)N(Cc1ccc(-c2nnc(C(F)(F)F)o2)cc1F)c1ccccc1` [Compound 11169, N-(2-fluoro-4-(5-(trifluoromethyl)-1,3,4-oxadiazol-2-yl)benzyl)-N-phenylmethanesulfonamide], for which the IC50 in test [1] was 41.1 µM. In test [2], the “HDAC6 selectivity (fold)” value was determined as 1081 fold and the IC50 stood at 0.038 µM.
For `CS(=O)(=O)N(Cc1ccc(-c2nnc(C(F)(F)F)o2)cc1)c1cccnc1` [Compound 11088, N-(pyridin-3-yl)-N-(4-(5-(trifluoromethyl)-1,3,4-oxadiazol-2-yl)benzyl)methanesulfonamide] the same measures were 51.4 µM, 404 fold and 0.127 µM.
For `O=S(=O)(C1CCN(C2COC2)CC1)N(Cc1ccc(-c2nnc(C(F)F)o2)cc1)c1ccccc1` [Compound 11680, N-(4-(5-(difluoromethyl)-1,3,4-oxadiazol-2-yl)benzyl)-1-(oxetan-3-yl)-N-phenylpiperidine-4-sulfonamide], the IC50 in test [1] is 76.4 µM. Also, in test [2], the “HDAC6 selectivity (fold)” value was 2634 fold and the IC50 amounted to 0.029 µM.
As for `CCS(=O)(=O)N(Cc1ccc(-c2nnc(C(F)F)o2)cn1)c1ccc(C)c(Cl)c1` [Compound 11505, N-(3-chloro-4-methylphenyl)-N-((5-(5-(difluoromethyl)-1,3,4-oxadiazol-2-yl)pyridin-2-yl)methyl)ethanesulfonamide], the IC50 in test [1] amounted to 60.4 µM. In addition, in test [2], the “HDAC6 selectivity (fold)” value was found to be 4646 fold and the IC50 worked out at 0.013 µM.
As for `O=S(=O)(C1CCN([C@H]2CC[C@@H](F)CC2)CC1)N(Cc1ccc(-c2nnc(C(F)F)o2)cn1)c1cccc(Cl)c1` [Compound 11728, N-(3-chlorophenyl)-N-((5-(5-(difluoromethyl)-1,3,4-oxadiazol-2-yl)pyridin-2-yl)methyl)-1-((1s,4s)-4-fluorocyclohexyl)piperidine-4-sulfonamide], the IC50 in test [1] turned out to be 21.6 µM. In test [2], the “HDAC6 selectivity (fold)” value was 453 fold and the IC50 was 0.0476 µM.
On to `O=S(=O)(CCCN1CCCC1)N(Cc1ccc(-c2nnc(C(F)F)o2)cc1)c1ccc(F)c(Cl)c1` [Compound 11722, N-(3-chloro-4-fluorophenyl)-N-(4-(5-(difluoromethyl)-1,3,4-oxadiazol-2-yl)benzyl)-3-(pyrrolidin-1-yl)propane-1-sulfonamide], for which the IC50 in test [1] was 41 µM. In test [2], the “HDAC6 selectivity (fold)” value is 1266 fold and the IC50 was 0.0324 µM.
For `CS(=O)(=O)N1CCN(CCCS(=O)(=O)N(Cc2ccc(-c3nnc(C(F)F)o3)cc2)c2ccccc2)CC1` [Compound 11648, N-(4-(5-(difluoromethyl)-1,3,4-oxadiazol-2-yl)benzyl)-3-(4-(methylsulfonyl)piperazin-1-yl)-N-phenylpropane-1-sulfonamide] the same measures were 498 µM, 8300 fold and 0.06 µM.
In the case of `CS(=O)(=O)N(Cc1ccc(-c2nnc(C(F)(F)F)o2)nn1)c1ccccc1` [Compound 11567, N-phenyl-N-((6-(5-(trifluoromethyl)-1,3,4-oxadiazol-2-yl)pyridazin-3-yl)methyl)methanesulfonamide], in test [1], the IC50 amounted to 30.9 µM. Besides, in test [2], the “HDAC6 selectivity (fold)” value is given as 7 fold and the IC50 was 4.33 µM.
As for `O=S(=O)(C1CCN([C@H]2CC[C@H](F)CC2)CC1)N(Cc1ccc(-c2nnc(C(F)F)o2)cn1)c1cccc(Cl)c1` [Compound 11727, N-(3-chlorophenyl)-N-((5-(5-(difluoromethyl)-1,3,4-oxadiazol-2-yl)pyridin-2-yl)methyl)-1-((1r,4r)-4-fluorocyclohexyl)piperidine-4-sulfonamide], the results for the IC50 in test [1] and in test [2] were 33.5 µM and 0.0563 µM, respectively. In addition, the “HDAC6 selectivity (fold)” value in test [2] stood at 594 fold.
